Experiments:
[1] = mn = molality of the nth substance listed, in mol/kg; conditions: 298.15 K, 100 kPa, Liquid; for viscosity: Capillary tube (Ostwald / Ubbelohde) method; for speed of sound: Frequency=1 MHz, Linear variable-path acoustic interferometer; for mass density: Vibrating tube method; for molar conductivity: Alternating current cell with electrodes
[2] = 298.15 K, Liquid

CNC=O [N-methylformamide] + [K+].[O-][Cl+3]([O-])([O-])[O-]
[1], m2 = 0
Conditions	mass density [kg/m3]	speed of sound [m/s]	viscosity [mPa·s]
–	999.12	1430.3	1.653

CNC=O [N-methylformamide] + [Na+].[O-][Cl+3]([O-])([O-])[O-]
[1], m2 = 0
Conditions	mass density [kg/m3]	speed of sound [m/s]	viscosity [mPa·s]
–	999.12	1430.3	1.653

CNC=O [N-methylformamide]
Conditions	speed of sound [m/s]
[2], 100 kPa, Frequency=1 MHz, Linear variable-path acoustic interferometer	1430.3

[2], 101.33 kPa
Conditions	mass density [kg/m3]	viscosity [mPa·s]
Capillary tube (Ostwald / Ubbelohde) method	–	1.653
Vibrating tube method	999.12	–

[Na+].[O-][Cl+3]([O-])([O-])[O-] [sodium perchlorate] + CNC=O
[1]
Conditions	mass density [kg/m3]	molar conductivity [S·m2/mol]	speed of sound [m/s]	viscosity [mPa·s]
m1 = 0.0001833	–	0.00113	–	–
m1 = 0.0002554	–	0.00111	–	–
m1 = 0.0003247	–	0.00109	–	–
m1 = 0.0003795	–	0.00107	–	–
m1 = 0.0004397	–	0.00105	–	–
m1 = 0.0005067	–	0.00103	–	–
m1 = 0.0005588	–	0.00101	–	–
m1 = 0.000621	–	0.00099	–	–
m1 = 0.0006765	–	0.000978	–	–
m1 = 0.0007431	–	0.000963	–	–
m1 = 0.0007846	–	0.000956	–	–
m1 = 0.000822	–	0.000947	–	–
m1 = 0.0008833	–	0.000925	–	–
m1 = 0.0009622	–	0.000906	–	–
m1 = 0.0145	999.72	–	1434.9	1.664
m1 = 0.0298	1000.43	–	1449.6	1.674
m1 = 0.0448	1001.19	–	1470.8	1.683
m1 = 0.0599	1001.99	–	1499.1	1.692
m1 = 0.0751	1002.84	–	1534.9	1.702
m1 = 0.0902	1003.73	–	1576.7	1.711

[Li+].[O-][Cl+3]([O-])([O-])[O-] [lithium perchlorate] + CNC=O
[1]
Conditions	mass density [kg/m3]	molar conductivity [S·m2/mol]	speed of sound [m/s]	viscosity [mPa·s]
m1 = 0.0001214	–	0.000939	–	–
m1 = 0.0001462	–	0.000926	–	–
m1 = 0.0001817	–	0.000907	–	–
m1 = 0.0002036	–	0.000895	–	–
m1 = 0.0002283	–	0.000879	–	–
m1 = 0.0002525	–	0.000875	–	–
m1 = 0.0002752	–	0.000854	–	–
m1 = 0.0003	–	0.000841	–	–
m1 = 0.0003244	–	0.000831	–	–
m1 = 0.0003557	–	0.000815	–	–
m1 = 0.0003756	–	0.000809	–	–
m1 = 0.0004004	–	0.000795	–	–
m1 = 0.0004406	–	0.000783	–	–
m1 = 0.0004687	–	0.000769	–	–
m1 = 0.015	999.44	–	1433.8	1.668
m1 = 0.0301	999.85	–	1447.3	1.682
m1 = 0.0452	1000.33	–	1468.1	1.696
m1 = 0.0603	1000.86	–	–	1.71
m1 = 0.0604	–	–	1494.8	–
m1 = 0.0755	1001.44	–	1529.4	1.725
m1 = 0.0907	1002.06	–	1569.9	1.738

CNC=O [N-methylformamide] + [Li+].[O-][Cl+3]([O-])([O-])[O-]
[1], m2 = 0
Conditions	mass density [kg/m3]	speed of sound [m/s]	viscosity [mPa·s]
–	999.12	1430.3	1.653

[K+].[O-][Cl+3]([O-])([O-])[O-] [potassium perchlorate] + CNC=O
[1]
Conditions	mass density [kg/m3]	molar conductivity [S·m2/mol]	speed of sound [m/s]	viscosity [mPa·s]
m1 = 0.0004439	–	0.00119	–	–
m1 = 0.0005285	–	0.00117	–	–
m1 = 0.0006265	–	0.00115	–	–
m1 = 0.0006838	–	0.00113	–	–
m1 = 0.000722	–	0.00113	–	–
m1 = 0.0007846	–	0.00112	–	–
m1 = 0.0008474	–	0.00112	–	–
m1 = 0.0009126	–	0.0011	–	–
m1 = 0.0009685	–	0.00109	–	–
m1 = 0.001057	–	0.00108	–	–
m1 = 0.001149	–	0.00106	–	–
m1 = 0.001216	–	0.00105	–	–
m1 = 0.00129	–	0.00103	–	–
m1 = 0.001359	–	0.00103	–	–
m1 = 0.0153	1000.04	–	1435.8	1.66
m1 = 0.0304	1001.02	–	1449.9	1.665
m1 = 0.0457	1002.07	–	1471.8	1.669
m1 = 0.0609	1003.15	–	1499.7	1.674
m1 = 0.0759	1004.25	–	1533.7	1.677
m1 = 0.0911	1005.39	–	1577.6	1.681
